This passage reports IC50, inhibition and MIC results from ChEMBL document CHEMBL2046361, “Ianthelliformisamines A-C, antibacterial bromotyrosine-derived metabolites from the marine sponge Suberea ianthelliformis” (J Nat Prod, 2012).

In assay [1] the test system is Staphylococcus aureus. The assay is described as follows: Antimicrobial activity against Staphylococcus aureus 01A1095 assessed as inhibition of cell viability after 18 hrs by spectrophotometry. It counts as functional, organism-based. As to conditions: 01A1095, 18 h.
The subject of assay [2] is Pseudomonas aeruginosa. In words: Antimicrobial activity against Pseudomonas aeruginosa PAO1 assessed as inhibition of cell viability after 18 hrs by spectrophotometry. As to conditions: PAO1, 18 h. It counts as functional, organism-based.
Assay [3] deals with Pseudomonas aeruginosa. In words: Antimicrobial activity against Pseudomonas aeruginosa PAO1 assessed as inhibition of cell viability at 175 uM after 18 hrs by spectrophotometry. In kind it is functional. The following applies: PAO1, 18 h.
Assay [4] relates to Staphylococcus aureus. The assay is described as follows: Antimicrobial activity against Staphylococcus aureus 01A1095 assessed as inhibition of cell viability at 87.5 uM after 18 hrs by spectrophotometry. It counts as functional. The following applies: 01A1095, 18 h.
For assay [5], the system named is Staphylococcus aureus. The assay is described as follows: Antimicrobial activity against Staphylococcus aureus 01A1095 assessed as inhibition of cell viability at 175 uM after 18 hrs by spectrophotometry. It counts as functional. As to conditions: 01A1095, 18 h.
Assay [6] relates to Pseudomonas aeruginosa. The assay is described as follows: Antimicrobial activity against Pseudomonas aeruginosa PAO1 assessed as inhibition of cell viability at 87.5 uM after 18 hrs by spectrophotometry. It counts as functional. As to conditions: PAO1, 18 h.
Assay [7] concerns Staphylococcus aureus. The assay is described as follows: Antimicrobial activity against Staphylococcus aureus 01A1095 assessed as inhibition of cell viability at 350 uM after 18 hrs by spectrophotometry. In kind it is functional, organism-based.
Assay [8] deals with Pseudomonas aeruginosa. In words: Antimicrobial activity against Pseudomonas aeruginosa PAO1 assessed as inhibition of cell viability at 350 uM after 18 hrs by spectrophotometry. In kind it is functional, organism-based.

Values after ≈ are worked out from the molar mass of the structure shown. Active and inactive are the calls of the source.

In the case of `O=C(O)c1cn(C2CC2)c2cc(N3CCNCC3)c(F)cc2c1=O` [CIPROFLOXACIN], the figures for the IC50 in assay [1] and in assay [2] were 125 µM and 0.038 µM, respectively.

With `COC1=C(Br)[C@H](O)[C@@]2(C=C1Br)CC(C(=O)NCCCOc1c(Br)cc(CCN)cc1Br)=NO2` [ARAPLYSILLIN I], the inhibition (commonly the drop in the measured response relative to a control, in per cent) at 175 µM in assay [3] is 65%. Besides, the inhibition at 87.5 µM in assay [4] came to 60%.

On to `COc1c(Br)cc(/C=C/C(=O)NCCCNCCCCNCCCN)cc1Br` [IANTHELLIFORMISAMINE A], for which, in assay [2], the IC50 – broadly, the point on the concentration scale where inhibition reaches its midpoint – is 6.8 µM and the MIC (as a rule, the smallest concentration in the dilution series that meets the test's criterion for growth inhibition) came out at 35 µM (≈ 18.2 µg/mL). In assay [5], the inhibition at 175 µM stood at 77%.

As for `COc1c(Br)cc(/C=C/C(=O)NCCCNCCCCNCCCNC(=O)/C=C/c2cc(Br)c(OC)c(Br)c2)cc1Br` [IANTHELLIFORMISAMINE C], the IC50 in assay [1] was 4.1 µM; in assay [2], 8.9 µM. For the same compound, the MIC is 8.75 µM (≈ 7.33 µg/mL) in assay [1] and 17.5 µM (≈ 14.7 µg/mL) in assay [2].

`COc1c(Br)cc(/C=C/C(=O)NCCCNCCCCN)cc1Br` [IANTHELLIFORMISAMINE B]: in assay [6], the inhibition at 87.5 µM is 80%.

As to `CN(C)CCCOc1c(Br)cc(CCN(C)C)cc1Br`, the inhibition entry in assay [7] and in assay [8] was “inactive” throughout.
